# Read-outs that look alike come from different tables or passages of the source. Where a SMILES comes first, the peptide text is derived from it.
# Columns and labels:
# [1] = tested on: NCI/ADR-RES (multi-drug resistant ovarian adenocarcinoma) cells; experiment: cells; assay type: cell-based; conditions: 72 h
# [2] = tested on: A549 (lung carcinoma) cells; experiment: MTT cytotoxicity, A549; assay type: cell-based; conditions: Homo sapiens, A549, 72 h
# [3] = mouse, in vivo, 1 mg/kg
# [4] = mouse; cited from earlier work
# [5] = human; cited from earlier work
compound,measurement,setting,value
"CC(=O)O[C@H]1C(=O)[C@@]2(C)[C@H]([C@H](OC(=O)c3ccccc3)[C@]3(O)C[C@H](OC(=O)[C@H](O)[C@@H](NC(=O)c4ccccc4)c4ccccc4)C(C)=C1C3(C)C)[C@]1(OC(C)=O)CO[C@@H]1C[C@@H]2O [PTX, Paclitaxel]",IC50,"[1]; Homo sapiens, NCI/ADR-RES",9.7 µM
same,decrease in activity compared to the peptide conjugate,"[1]; NCI/ADR-RES, MTT",~2 fold
same,IC50,[2],3.6 nM
same,tolerability at maximum soluble concentration,[3],well tolerated
CC(C)[C@H](NC(=O)[C@H](CCCCN)NC(=O)[C@@H](NC(=O)[C@H](CCCCN)NC(=O)[C@@H](NC(=O)[C@H](CCCCN)NC(=O)[C@@H](NC(=O)[C@@H]1CCCN1C(=O)[C@H]1CCCN1C(=O)[C@@H](NC(=O)[C@H](CCCCN)NC(=O)[C@@H](NC(=O)[C@H](CCCCN)NC(=O)[C@@H](NC(=O)[C@H](CCCCN)NC(=O)[C@@H](NC(=O)[C@@H](N)CCCCN)C(C)C)C(C)C)C(C)C)C(C)C)[C@@H](C)O)C(C)C)C(C)C)C(=O)N[C@@H](CCCCN)C(N)=O [SVS-1] (HELM PEPTIDE1{K.V.K.V.K.V.K.V.[dP].P.T.K.V.K.V.K.V.K.[am]}$$$$V2.0),IC50,[1],3.21 µM
KKVVFKVKFKK-NH2 [KSLK],reported half-life,[4],6 min
YGRKKRRQRRR-NH2 [TAT],reported half-life,[5],3.5 min

# From publication PMC4458427 (Journal of controlled release : official journal of the …, 2015)
